Laboratory results as given in patent US6143910A, “Methods for preparation and use of 1α, 24(S) -dihydroxy vitamin D2” (priority 1998, dated 2000).
Like-named read-outs stand apart in the source and are kept apart here.

Assays:
[1] = assay type: in vivo, rat
Protocol: Vitamin D2 or 24-OH-D2 was administered (either oral or intraperitoneal supplementation) to vitamin D-deficient rats. Lipid extracts of the plasma were prepared and the metabolites purified by the method of Horst et al. (Horst, R. L., Koszewski, N. J. and Reinhardt, T. A., Biochem., 29:578-82 (1990)) described below for synthesyzing standard biological 1α,24-(OH)2 D2.
Standard biological 1α,24-(OH)2 D2 was synthesized in vitro from 24-OH-D2 by incubating 10 μg of 24-OH-D2 in flask containing 5 ml of 20% kidney homogenates made from vitamin D-deficient chicks. The product of this reaction was isolated by HPLC and identified by mass spectrometry.

[2] = human, in vivo; cited from earlier work
[3] = Blood metabolite levels in osteoporotic women administered 1α-OH-D2; assay type: in vivo, human; settings: one day after a single 2 μg dose of 1α-OH-D2
Protocol: An increase in the production of 1α,24(S)-(OH)2 D2 relative to 1α,25-(OH)2 D2 has also been observed by the present inventors in human females who received 1α-OH-D2 as part of an investigation of that drug for the treatment of osteoporosis. Following either a single dose of 2 μg of 1α-OH-D2 or daily doses of 8 μg/day for one week, blood was collected and analyzed for the metabolites 1α,24(S)-(OH)2 D2 and 1α,25-(OH)2 D2. Lipid was extracted from the blood, and the metabolites were purified by HPLC using standard methods and quantified with the radioreceptor assay produced by Incstar (Stillwater, Minn.). One day after a single 2 μg dose, the level of 1α,24(S)-(OH)2 D2 was undetectable with the 1α,25-(OH)2 D2 level being approximately 11 pg/ml. In contrast, one day following the last dose of 8 μg, the level of 1α,24(S)-(OH)2 D2 averaged 9 pg/ml with the 1α,25-(OH)2 D2 level averaging 30 pg/ml.

[4] = test system: 1,25-(OH)2 D3 receptor site; settings: Ishizuka et al., Steroids 1981, 1982; cited from earlier work

Compound: C=C1CC[C@H](O)C/C1=C/C=C1\CCC[C@]2(C)[C@@H]([C@H](C)/C=C/C(C)(O)C(C)C)CC[C@@H]12 (stereo partly drawn) [24-OH-D2, 24-hydroxyvitamin D2]
- 1α,24-(OH)2 D2 metabolite in plasma lipid extracts ([1]; rat, in vivo): co-migrated on HPLC with the standard 1α,24-(OH)2 D2

Compound: C=C1/C(=C\C=C2/CCC[C@]3(C)[C@@H]([C@H](C)CCCC(C)C)CC[C@@H]23)C[C@@H](O)C[C@@H]1O [1α-(OH)D3, 1α-hydroxy vitamin D3]
- Safety of dosage levels of 2.0 μg/day or greater [2]: not safely obtained

Compound: C=C1/C(=C\C=C2/CCC[C@]3(C)[C@@H]([C@H](C)/C=C/[C@H](C)C(C)C)CC[C@@H]23)C[C@@H](O)C[C@@H]1O [1α-OH-D2, 1α-hydroxy vitamin D2]
- Blood level of metabolite 1α,24(S)-(OH)2 D2 [3]: undetectable

Compound: C=C1/C(=C\C=C2/CCC[C@]3(C)[C@@H]([C@H](C)CC[C@@H](O)C(C)C)CC[C@@H]23)C[C@@H](O)C[C@@H]1O [1α,24(R)-(OH)2 D3, 1α,24(R)-dihydroxyvitamin D3]
- Binding of the 1,25-(OH)2 D3 receptor site relative to 1,25-(OH)2 D3 [4]: more tightly than does 1,25-(OH)2 D3 itself

Compound: C=C1CC[C@H](O)C/C1=C/C=C1\CCC[C@]2(C)[C@@H]([C@H](C)/C=C/[C@H](C)C(C)C)CC[C@@H]12 [vitamin D2]
- 1α,24-(OH)2 D2 metabolite in plasma lipid extracts ([1]; vitamin D-deficient rats, oral or intraperitoneal, HPLC): co-migrated on HPLC with the standard 1α,24-(OH)2 D2

Compound: C=C1CC[C@H](O)C/C1=C/C=C1\CCC[C@]2(C)[C@@H]([C@H](C)CCCC(C)C)CC[C@@H]12 [vitamin D3]
- 24-OH-D3 in plasma ([1]; comparable vitamin D-deficient rats): no detectable 24-OH-D3
